From patent US5216183A, “Cyclopentanone/cyclopentenone derivative” (Teijin Limited, priority 1988, dated 1993)

System: human osteoblasts (KK-3, 18PDL)
Test: Measurement of bone formation activity (KK-3, 14 days)
Type: cell-based
Experimental: Human osteoblasts (KK-3, 18PDL) were cultured in an α-MEM containing 10% fetal calf serum. After the growth became stationary, the compound was added in a given concentration in the presence of 2 mM α-glycerophosphate and treated for 14 days. The cell phase was washed with physiological saline, and the alkaline phosphatase activity (ALP) was measured through the absorption of OD415. Then, calcium (Ca) and phosphorus (P) were extracted with a 2N hydrochloric acid and quantitatively determined.

[1] = Table 36, 10^-6 M, control 1.17 ± 0.03
[2] = Table 36, 10^-6 M, control 2.33 ± 1.15
[3] = Table 33, 10^-5 M, control 0.80 ± 0.02
[4] = Table 33, 10^-5 M, control 15.67 ± 1.53
[5] = Table 33, 10^-5 M, control 22.67 ± 3.06
[6] = Table 33, 10^-6 M, control 0.80 ± 0.02
[7] = Table 33, 10^-6 M, control 22.67 ± 3.06
[8] = Table 26, 10^-6 M, control 0.27 ± 0.04
[9] = Table 26, 10^-6 M, control 30.68 ± 3.33
[10] = Table 26, 10^-6 M, control 45.61 ± 6.19
[11] = Table 26, 10^-7 M, control 0.27 ± 0.04
[12] = Table 26, 10^-7 M, control 45.61 ± 6.19
[13] = Table 32, 10^-5 M, control 0.80 ± 0.01
[14] = Table 32, 10^-5 M, control 23.00 ± 1.00
[15] = Table 32, 10^-6 M, control 0.80 ± 0.01
[16] = Table 32, 10^-6 M, control 15.67 ± 0.58
[17] = Table 32, 10^-6 M, control 23.00 ± 1.00
[18] = Table 30, 10^-6 M, control 0.60 ± 0.02
[19] = Table 30, 10^-6 M, control 3.00 ± 1.73
[20] = Table 30, 10^-7 M, control 0.60 ± 0.02
[21] = Table 30, 10^-7 M, control 3.00 ± 1.73
[22] = Table 30, 10^-7 M, control 5.33 ± 1.15
[23] = Table 35, 10^-5 M, control 1.23 ± 0.02
[24] = Table 35, 10^-5 M, control 3.00 ± 1.00
[25] = Table 35, 10^-6 M, control 1.23 ± 0.02
[26] = Table 35, 10^-6 M, control 3.00 ± 1.00
[27] = Table 35, 10^-6 M, control 5.67 ± 0.58
[28] = Table 36, 10^-7 M, control 1.17 ± 0.03
[29] = Table 36, 10^-7 M, control 2.33 ± 1.15
[30] = Table 36, 10^-7 M, control 5.00 ± 0.00
[31] = Table 27, 10^-7 M, control 0.58 ± 0.03
[32] = Table 27, 10^-7 M, control 11.83 ± 3.18
[33] = Table 28, 10^-6 M, control 4.33 ± 0.58
[34] = Table 31, 10^-7 M, control 0.18 ± 0.06
[35] = Table 31, 10^-7 M, control 1.88 ± 0.31
[36] = Table 31, 10^-7 M, control 4.73 ± 0.37
[37] = Table 31, 10^-8 M, control 0.18 ± 0.06
[38] = Table 31, 10^-8 M, control 1.88 ± 0.31

SMILES: Cn1ccnc1SC1=CC(O)(CCCCOc2ccccc2)C(C(O)C2=C(C(C)(C)O)CCCC2)C1=O (stereo not shown)
- ALP (Table 36, 10^-5 M, control 1.17 ± 0.03): 0.87 OD415 /dish
- Ca (Table 36, 10^-5 M, control 2.33 ± 1.15): 50.67 μg/dish
- ALP [1]: 1.20 ± 0.05 OD415 /dish
- Ca [2]: 2.00 ± 0.00 μg/dish
- P (Table 36, 10^-6 M, control 5.00 ± 0.00): 5.00 ± 1.00 μg/dish

SMILES: COC(=O)CCCC#CCC1C(=O)C(SC)=CC1(O)CCCCOc1ccccc1 (stereo not shown)
- ALP [3]: 0.98 ± 0.08 OD415 /dish
- P [4]: 35.33 ± 0.58 μg/dish
- Ca [5]: 58.67 ± 1.53 μg/dish
- ALP [6]: 0.90 OD415 /dish
- Ca [7]: 24.33 ± 1.53 μg/dish

SMILES: O=C1C(Sc2ccccn2)=CC(O)(CCCCOc2ccccc2)C1=CC=CC(O)CCCO (stereo not shown)
- ALP [8]: 0.36 ± 0.12 OD413 /dish
- P [9]: 42.28 ± 6.99 μg/dish
- Ca [10]: 70.42 ± 7.82 μg/dish
- ALP [11]: 0.29 ± 0.04 OD413 /dish
- Ca [12]: 56.85 μg/dish

SMILES: CSC1=CC(O)(CCCCOc2ccccc2)C(CC=CC(O)CCCO)C1=O (stereo not shown)
- ALP [13]: 0.56 OD415 /dish
- Ca [14]: 30.67 ± 2.31 μg/dish
- ALP [15]: 0.84 ± 0.03 OD415 /dish
- P [16]: 9.33 ± 1.15 μg/dish
- Ca [17]: 10.67 ± 1.53 μg/dish

SMILES: COC(=O)CCCCCC=C1C(=O)C(Sc2nccn2C)=CC1(O)CCCCOc1ccccc1 (stereo not shown)
- ALP [18]: 0.60 OD415 /dish
- Ca [19]: 43.67 μg/dish
- ALP [20]: 0.63 ± 0.02 OD415 /dish
- Ca [21]: 3.67 ± 1.15 μg/dish
- P [22]: 6.33 ± 0.58 μg/dish

SMILES: CSC1=CC(O)(CCCCOc2ccccc2)C(C(/C=C/C(O)CCCO)OC(C)=O)C1=O (stereo not shown)
- ALP [23]: 0.17 OD415 /dish
- Ca [24]: 104.00 μg/dish
- ALP [25]: 1.10 ± 0.06 OD415 /dish
- Ca [26]: 24.08 ± 2.00 μg/dish
- P [27]: 18.00 ± 1.00 μg/dish

SMILES: COC(=O)COc1cccc(C=C2C(=O)C(SC)=CC2(O)CCCCOc2ccccc2)c1 (stereo not shown) [drawing 1073]
- ALP (Table 29, 10^-7 M, control 0.77 ± 0.20): 0.52 ± 0.10 OD413 /dish
- P (Table 29, 10^-7 M, control 18.64 ± 3.16): 21.72 ± 8.88 μg/dish
- Ca (Table 29, 10^-7 M, control 31.26 ± 3.00): 36.18 ± 14.29 μg/dish
- ALP (Table 29, 10^-8 M, control 0.77 ± 0.20): 0.64 OD413 /dish
- Ca (Table 29, 10^-8 M, control 31.26 ± 3.00): 49.16 ± 26.04 μg/dish

SMILES: CSC1=CC(O)(CCCCOc2ccccc2)C(C(/C=C/C(O)CCCO)OC(=O)OC(C)C)C1=O (stereo not shown)
- ALP [23]: 0.18 OD415 /dish
- Ca [24]: 109.67 μg/dish
- ALP [25]: 1.22 ± 0.06 OD415 /dish
- Ca [26]: 25.00 ± 1.73 μg/dish
- P [27]: 19.67 ± 1.15 μg/dish

SMILES: Cn1ccnc1SC1=CC(O)(CCCCOc2ccccc2)C(=C/C=C/CO)C1=O (stereo not shown)
- ALP [1]: 1.18 OD415 /dish
- Ca [2]: 37.33 μg/dish
- ALP [28]: 1.20 ± 0.03 OD415 /dish
- Ca [29]: 2.33 ± 0.58 μg/dish
- P [30]: 4.33 ± 0.58 μg/dish

SMILES: Cn1ccnc1SC1=CC(O)(CCCCOc2ccccc2)C(=Cc2ccc(CC(CO)CO)cc2)C1=O (stereo not shown)
- ALP [18]: 0.08 OD415 /dish
- Ca [19]: 116.00 μg/dish
- ALP [20]: 0.66 ± 0.03 OD415 /dish
- Ca [21]: 11.00 ± 1.73 μg/dish
- P [22]: 11.67 ± 1.15 μg/dish

SMILES: CSC1=CC(CCCCOc2ccccc2)C(=C/C=C/C(O)CCCO)C1=O (stereo not shown)
- ALP [3]: 0.79 ± 0.02 OD415 /dish
- P [4]: 31.00 ± 1.00 μg/dish
- Ca [5]: 50.67 ± 1.15 μg/dish
- ALP [6]: 0.76 OD415 /dish
- Ca [7]: 19.67 ± 2.52 μg/dish

SMILES: CC(C)OC(=O)OC(/C=C/C(O)CCCO)C1C(=O)C(Sc2nccn2C)=CC1(O)CCCCOc1ccccc1 (stereo not shown)
- ALP [23]: 0.165 OD415 /dish
- Ca [24]: 136.67 μg/dish
- ALP [25]: 1.24 ± 0.03 OD415 /dish
- Ca [26]: 54.67 ± 2.08 μg/dish
- P [27]: 35.00 ± 2.00 μg/dish

SMILES: O=C1C(SC2CCCCC2)=CC(O)(CCCCOc2ccccc2)C1C(O)C=CC(O)CCCO (stereo not shown)
- ALP [31]: 0.55 ± 0.04 OD413 /dish
- P (Table 27, 10^-7 M, control 11.50 ± 1.73): 11.67 ± 3.18 μg/dish
- Ca [32]: 13.83 ± 1.15 μg/dish
- ALP (Table 27, 10^-8 M, control 0.58 ± 0.03): 0.36 OD413 /dish
- Ca (Table 27, 10^-8 M, control 11.83 ± 3.18): 20.17 μg/dish

SMILES: Cn1ccnc1SC1=CC(O)(CCCCOc2ccccc2)C(=CC=CC2(O)CCCCC2)C1=O (stereo not shown)
- ALP [18]: 0.11 OD415 /dish
- Ca [19]: 85.67 μg/dish
- ALP [20]: 0.58 ± 0.03 OD415 /dish
- Ca [21]: 14.00 ± 1.00 μg/dish
- P [22]: 12.67 ± 1.15 μg/dish

SMILES: O=C1C(=CCCC2CCCCC2)CC=C1Sc1ccccc1
- ALP (Table 34, 10^-7 M, control 0.35 ± 0.02): 0.36 ± 0.04 OD415 /dish
- P (Table 34, 10^-7 M, control 12.41 ± 1.50): 12.33 ± 2.80 μg/dish
- Ca (Table 34, 10^-7 M, control 17.81 ± 0.50): 23.94 ± 5.80 μg/dish
- ALP (Table 34, 10^-8 M, control 0.35 ± 0.02): 0.30 OD415 /dish
- P (Table 34, 10^-8 M, control 12.41 ± 1.50): 8.98 ± 1.89 μg/dish
- Ca (Table 34, 10^-8 M, control 17.81 ± 0.50): 18.13 ± 2.6 μg/dish

SMILES: CC(=O)OC(/C=C/C(O)CCCO)C1C(=O)C(Sc2nccn2C)=CC1(O)CCCCOc1ccccc1 (stereo not shown)
- ALP [23]: 0.15 OD415 /dish
- Ca [24]: 137.00 μg/dish
- ALP [25]: 1.28 ± 0.03 OD415 /dish
- Ca [26]: 51.67 ± 8.08 μg/dish
- P [27]: 35.33 ± 5.03 μg/dish

SMILES: Cn1ccnc1SC1=CC(O)(CCCCOc2ccccc2)C(C(O)C=CC(O)CCCO)C1=O (stereo not shown) [drawing 1072]
- ALP (Table 28, 10^-6 M, control 0.72 ± 0.01): 0.76 ± 0.08 OD413 /dish
- Ca [33]: 26.17 ± 3.25 μg/dish
- P [33]: 19.33 ± 2.02 μg/dish
- ALP (Table 28, 10^-7 M, control 0.72 ± 0.01): 0.81 OD413 /dish
- Ca (Table 28, 10^-7 M, control 4.33 ± 0.58): 1.17 μg/dish

SMILES: CC(C)(C)C1=C(Sc2ccccc2)C(=O)C(=CC=CC(O)CCCO)C1O (stereo not shown)
- ALP [34]: 0.16 ± 0.04 OD415 /dish
- Ca [35]: 2.43 ± 0.19 μg/dish
- P [36]: 4.68 ± 0.27 μg/dish
- ALP [37]: 0.15 OD415 /dish
- Ca [38]: 4.07 μg/dish

SMILES: Cn1ccnc1SC1=CC(O)(CCCCOc2ccccc2)C(=CC=C2CCCCC2)C1=O (stereo not shown)
- ALP [1]: 1.09 OD415 /dish
- Ca [2]: 15.33 μg/dish
- ALP [28]: 1.19 ± 0.06 OD415 /dish
- Ca [29]: 3.33 ± 0.58 μg/dish
- P [30]: 5.67 ± 0.58 μg/dish

SMILES: O=C1C(SC2CCCCC2)=CC(O)(CCCCOc2ccccc2)C1=CC=CC(O)CCCO (stereo not shown) [drawing 1070]
- ALP (Table 27, 10^-6 M, control 0.58 ± 0.03): 0.64 ± 0.05 OD413 /dish
- P (Table 27, 10^-6 M, control 11.50 ± 1.73): 24.83 ± 2.47 μg/dish
- Ca (Table 27, 10^-6 M, control 11.83 ± 3.18): 33.50 ± 3.91 μg/dish
- ALP [31]: 0.53 OD413 /dish
- Ca [32]: 19.67 μg/dish

SMILES: CCOc1ccc2nc(SC3=CC(O)(CCCCOc4ccccc4)C(=CC=CC(O)CCCO)C3=O)sc2c1 (stereo not shown) [drawing 1068]
- ALP [8]: 0.10 ± 0.01 OD413 /dish
- P [9]: 41.45 ± 7.21 μg/dish
- Ca [10]: 81.88 ± 8.47 μg/dish
- ALP [11]: 0.34 ± 0.06 OD413 /dish
- Ca [12]: 61.19 μg/dish

SMILES: Cn1ccnc1SC1=CC(O)(CCCCOc2ccccc2)C(=CC=CC(O)CCCO)C1=O (stereo not shown) [drawing 1069]
- ALP [8]: 0.48 ± 0.04 OD413 /dish
- P [9]: 46.43 ± 1.41 μg/dish
- Ca [10]: 79.83 ± 0.58 μg/dish
- ALP [11]: 0.33 OD413 /dish
- Ca [12]: 61.95 μg/dish

SMILES: CSC1=CC(O)C(=CC=CC(O)CCCO)C1=O (stereo not shown) [drawing 1082]
- ALP [13]: 0.53 OD415 /dish
- Ca [14]: 57.33 ± 2.08 μg/dish
- ALP [15]: 0.81 ± 0.06 OD415 /dish
- P [16]: 16.33 ± 2.08 μg/dish
- Ca [17]: 23.00 ± 3.46 μg/dish

SMILES: CCCCC1=C(Sc2nccn2C)C(=O)C(=CC=CC(O)CCCO)C1(O)CCCCOc1ccccc1 (stereo not shown) [drawing 1079]
- ALP [34]: 0.12 ± 0.01 OD415 /dish
- Ca [35]: 4.85 ± 0.84 μg/dish
- P [36]: 6.68 ± 0.34 μg/dish
- ALP [37]: 0.17 OD415 /dish
- Ca [38]: 2.46 μg/dish
